In ChEMBL document CHEMBL4130419, “Novel chemotypes targeting tubulin at the colchicine binding site and unbiasing P-glycoprotein” (Eur J Med Chem, 2017):

Key:
MCF7 = assay: Antiproliferative activity against human MCF7 cells after 72 hrs by MTT assay; type: functional, cell-based; settings: MCF7, 72 h
HepG2 = assay: Antiproliferative activity against human HepG2 cells after 72 hrs by MTT assay; type: functional, cell-based; settings: HepG2, 72 h
HeLa = assay: Antiproliferative activity against human HeLa cells after 72 hrs by MTT assay; type: functional, cell-based
SH-SY5Y = assay: Antiproliferative activity against human SH-SY5Y cells after 72 hrs by MTT assay; type: functional, cell-based
Sus scrofa = species: Sus scrofa; assay: Inhibition of tubulin polymerization in porcine brain assessed as disruption of microtubule organization after 1 hr by fluorescence polarization assay
[1] = Apparent permeability from apical to basolateral side in MDCK2-MDR1 cells at 75 uM after 2 hrs UV-visible spectroscopy; type: ADME, cell-based, Canis lupus familiaris; settings: dog, MDCK-MDR1
[2] = Apparent permeability from basolateral to apical side in MDCK2-MDR1 cells at 75 uM after 2 hrs UV-visible spectroscopy; type: ADME, cell-based, Canis lupus familiaris; settings: dog, MDCK-MDR1
[3] = Efflux ratio of apparent permeability from basolateral to apical over apical to basolateral side in MDCK2-MDR1 cells at 75 uM after 2 hrs by UV-visible spectroscopy; type: ADME, cell-based, Canis lupus familiaris; settings: dog, MDCK-MDR1

SMILES | IC50 (MCF7) | IC50 (HepG2) | IC50 (HeLa) | IC50 (SH-SY5Y) | inhibition (Sus scrofa) | Papp A→B at 2 h, 75 µM [1] | Papp B→A at 2 h, 75 µM [2] | efflux ratio at 2 h, 75 µM [3]
Cc1cccc(-n2ccnc2SCC(=O)c2ccc3c(c2)CCC(=O)N3)c1 | 66 µM | 91.2 µM | 81.7 µM | 67.6 µM | Dose-dependent effect |  |  | 
COc1cc2c(c(OC)c1OC)-c1ccc(OC)c(=O)cc1[C@@H](NC(C)=O)CC2 [COLCHICINE] |  | 0.042 µM |  |  |  |  |  | 
CCC(c1nnc(SCC(=O)c2[nH]c(C)c(C(C)=O)c2C)n1Cc1ccccc1)N(C)C (configuration not stated) | 10 µM | 96.9 µM | 74.1 µM | 37 µM | Dose-dependent effect |  |  | 
CCc1cccc(NC(=O)c2cnn3c(C(F)F)cc(-c4ccc(C)cc4)nc23)c1 | 9.2 µM | > 100 µM | 95.5 µM | 100 µM | Dose-dependent effect |  |  | 
Cn1cc(SCC(=O)N2N=C(c3cccs3)CC2c2ccc(F)cc2)c2ccccc21 (configuration not stated) | 37.1 µM | > 100 µM | 44 µM | 11.7 µM | Dose-dependent effect | 39 ×10⁻⁶ cm/s | 47 ×10⁻⁶ cm/s | 1.2
O=C(CSc1nnc(-c2c[nH]c3ccccc23)n1CC1CCCO1)c1ccc(Cl)s1 (configuration not stated) | 66 µM | 79.4 µM | 45.7 µM | 34.7 µM | Dose-dependent effect |  |  | 
CCOC(=O)c1c(C)[nH]c(C)c1C(=O)CSC1=Nc2ccccc2C2CC=NN12 (configuration not stated) | 32 µM | 14.1 µM | 63.2 µM | 3.7 µM | Dose-dependent effect | 76 ×10⁻⁶ cm/s | 47 ×10⁻⁶ cm/s | 0.62
CCOc1ccc(-n2c(SCC(=O)N3CCOCC3)nnc2-c2cccc(C)c2)cc1 | 93 µM | > 100 µM | 61.6 µM | > 100 µM | Dose-dependent effect |  |  | 
COc1ccc(-c2nc3ccccc3c3nnc(SCc4ncc(C)c(OC)c4C)n23)cc1 | 1.4 µM | > 100 µM | 19 µM | 66 µM | Dose-dependent effect |  |  | 
Cc1ccc(NC(=O)Cn2c(C(F)(F)F)nc3ccccc32)c(-c2nc(C3CC3)n[nH]2)c1 | 13 µM | 38.9 µM | 1.6 µM | 0.9 µM | Dose-dependent effect |  |  | 
CCOC(=O)c1c(NC(=O)C2CC(=O)Nc3ccccc32)sc(C)c1C (configuration not stated) | 9 µM | > 100 µM | > 100 µM | 67.5 µM | Dose-dependent effect |  |  | 
COc1cc2c(=O)c(C(=O)c3ccc(C)c(C)c3)cn(Cc3ccc(F)cc3)c2cc1OC | 5.7 µM | 72.4 µM | 36.3 µM | 25.1 µM | Dose-dependent effect |  |  | 
CSc1ccccc1NC(=O)c1cnn2c(C(F)F)cc(-c3ccc(C)cc3)nc12 | 6 µM | 100 µM | 95.5 µM | 57.5 µM | Dose-dependent effect |  |  | 
Cc1ccc(-n2c(SCC(=O)N3CC(=O)Nc4ccccc43)nnc2-c2cccc(C)c2)cc1 | 68 µM | > 100 µM | 83 µM | 72.4 µM | Dose-dependent effect |  |  | 
COc1ccc(C2CCCN2CC(=O)Nc2ccccc2-c2ccccc2)cc1 (configuration not stated) | 7 µM | 35.5 µM | 20.8 µM | 8.7 µM | Dose-dependent effect |  |  | 
CCCCN1C(=O)c2[nH]nc(-c3ccccc3O)c2C1c1ccc(OCC)cc1 (configuration not stated) | 5.2 µM | 18.3 µM | 21 µM | 22.5 µM | Dose-dependent effect | 63 ×10⁻⁶ cm/s | 55 ×10⁻⁶ cm/s | 0.87

SMILES | IC50 (MCF7) | IC50 (HepG2) | IC50 (HeLa) | IC50 (SH-SY5Y) | inhibition (Sus scrofa) | Papp A→B at 2 h, 75 µM [1] | Papp B→A at 2 h, 75 µM [2] | efflux ratio at 2 h, 75 µM [3]
Cc1cccc(-n2nc(C)c3c2NC2=C(C(=O)CC(C)(C)C2)C3c2ccc(O)cc2)c1 (configuration not stated) | 25 µM | > 100 µM | 10.7 µM | 70.8 µM | Dose-dependent effect |  |  | 
CCOC(=O)c1c(NC(=O)C2=C(C)N=C(S)NC2c2ccc(CC)cc2)sc(C)c1C (configuration not stated) | 26 µM | > 100 µM | 36.3 µM | > 100 µM | Dose-dependent effect |  |  | 
Cc1cccc(-c2nnc(SCC(=O)c3ccc(O)cc3O)n2-c2ccccc2)c1 | 67.2 µM | 33.1 µM | 16 µM | 12.7 µM | Dose-dependent effect | 22 ×10⁻⁶ cm/s | 13 ×10⁻⁶ cm/s | 0.59
CCOC(=O)C1CCCN(C(=O)c2cc(-c3ccc(Cl)cc3)nc3ccccc23)C1 (configuration not stated) | 17.4 µM | 100 µM | 54.9 µM | 38 µM | Dose-dependent effect |  |  | 
O=C(Cn1cc(CNC2(c3ccccc3F)CCCC2)c2ccccc21)NC1CC1 | 29 µM | > 100 µM | 52.5 µM | > 100 µM | Dose-dependent effect |  |  | 
COc1ccc(C)cc1NC(=O)c1cnn2c(C(F)F)cc(-c3ccc(C)cc3)nc12 | 7 µM | > 100 µM | 15.1 µM | 67.6 µM | Dose-dependent effect |  |  | 
O=C(c1c[nH]c2ccccc12)C(NCc1ccc2c(c1)OCO2)c1ccccc1 (configuration not stated) | 26 µM | 32.4 µM | 22.4 µM | 17.4 µM | Dose-dependent effect | 90 ×10⁻⁶ cm/s | 92 ×10⁻⁶ cm/s | 1.02
COc1ccc(NS(=O)(=O)c2ccc3c(c2)N(C(C)=O)CC(C)O3)cc1Cl (configuration not stated) | 23 µM | 77.6 µM | 45.7 µM | > 100 µM | Dose-dependent effect |  |  | 
Cc1n[nH]c(O)c1C(c1cccc(OCc2ccc(F)cc2)c1)c1c(O)n[nH]c1C | 8 µM | > 100 µM | 23.9 µM | 43.7 µM | Dose-dependent effect |  |  | 
CC(=O)Nc1ccc(C2=CC(c3ccc(Cl)cc3Cl)n3nc(CCCO)nc3N2)cc1 (configuration not stated) | 66 µM | 74.1 µM | 63.1 µM | 61.7 µM | Dose-dependent effect |  |  | 
NC(=O)C1CCN(c2nc(CSc3ccccc3)nc3sc4c(c23)CCCC4)CC1 | 11 µM | 52.5 µM | 45.7 µM | 11.5 µM | Dose-dependent effect | 45 ×10⁻⁶ cm/s | 82 ×10⁻⁶ cm/s | 1.82
C=CCOc1ccccc1CN(C(=O)CN1CCNC(=O)C1)c1ccc2c(c1)OCO2 | 32 µM | > 100 µM | 66 µM | > 100 µM | Dose-dependent effect |  |  | 
COc1ccc(-c2cc(C(F)F)n3ncc(C(=O)Nc4cc(Cl)ccc4O)c3n2)cc1 | 2.2 µM | > 100 µM | 74 µM | 40 µM | Dose-dependent effect | 18 ×10⁻⁶ cm/s | 21 ×10⁻⁶ cm/s | 1.16
COc1ccc(-n2c(SCC(=O)c3ccc(OC(F)F)cc3)nc3ccccc32)cc1 | 9 µM | 63.9 µM | 37.1 µM | 52.5 µM | Dose-dependent effect |  |  | 
Cc1cc(C)c(O)c(-c2n[nH]c3c2C(c2ccccc2)N(CCCO)C3=O)c1 (configuration not stated) | 54 µM | 48.9 µM | 50.1 µM | 51.3 µM | Dose-dependent effect |  |  | 
CCCSc1nnc(N2C(=O)C(O)=C(C(=O)c3ccco3)C2c2ccccc2F)s1 (configuration not stated) | 25.2 µM | > 100 µM | 55 µM | 10.3 µM | Dose-dependent effect |  |  | 
